Test [1] deals with T1, KMT9 (Homo sapiens, UniProt Q9Y5N5).
T1 sequence (Q9Y5N5 1-214): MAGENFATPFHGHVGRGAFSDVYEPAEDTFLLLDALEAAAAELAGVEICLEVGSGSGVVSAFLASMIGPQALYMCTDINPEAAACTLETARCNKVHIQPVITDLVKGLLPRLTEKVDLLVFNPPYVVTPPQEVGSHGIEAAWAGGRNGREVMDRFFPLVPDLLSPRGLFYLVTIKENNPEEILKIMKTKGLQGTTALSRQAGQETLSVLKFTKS
T1 sequence (Q9UI30 1-120 isoform Q9UI30-2 partner): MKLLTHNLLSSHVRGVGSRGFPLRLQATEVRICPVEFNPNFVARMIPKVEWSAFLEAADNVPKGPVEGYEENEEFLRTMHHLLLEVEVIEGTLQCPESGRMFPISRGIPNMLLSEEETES
The experiment in a line: Microscale thermophoresis (MST) KMT9 binding. Conditions: microscale thermophoresis, His-tag labelled KMT9 (20 nM); read-out: MST. The method, boiled down: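 His-tagged KMT9 (20 nM), RED-Tris-NTA labelled, titrated with varying compound concentrations in 25 mM HEPES pH 7.5, 100 mM NaCl, 1 mM DTT, 0.05% Tween. MST at 40% MST and 100% LED power, Nano-RED excitation; Kd binned A ≤10 nM, B 10–100, C 100–1000, D >1000 nM.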
In general terms: Microscale thermophoresis detects binding through changes in fluorescence in a small temperature gradient.

Test [2] deals with T1, KMT9. The experiment in a line: KMT9 thermal shift assay (SyproOrange). Type of test: binding. The conditions noted are these: ΔTm; 500 µM compound, 2 μM KMT9, 5X SO; read-out: Thermal shift. The method, boiled down:
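Recombinant KMT9 was incubated with compound and SyproOrange at 25° C in 50 mM BTP pH 8.5, 1 mM MgCl2, 1 mM DTT. It was then heated from 20° C to 95° C at 1° C per 15 s with fluorescence read each step. Tm came from a Boltzmann sigmoidal fit; ΔTm relative to DMSO control, binned in 5 K ranges.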

Test [3] deals with T1, KMT9. Put plainly: KMT9 methyltransferase inhibition assay, 3H-SAM scintillation (entries 1-154). Type of test: biochemical. The conditions noted are these: entries 1-154: 3H-SAM assay, 25 nM KMT9, 5 μM ETF1. The method, boiled down: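 Final 25 nM KMT9, 5 μM ETF1 (residues 140-275), 0.3 μM 3H-SAM plus 0.7 μM SAM in pH 8.5 BTP buffer, 2 h at 30° C. TCA-quenched, filter-washed, methylation counted by scintillation; % inhibition vs DMSO and no-enzyme controls, IC50 from four-parameter fit.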

pIC50, pKd: −log10 of the molar value.

Take `CNc1ncnc2c1ccn2[C@@H]1C[C@H](C(=O)NCCCNCc2ccc(Oc3ccc(Cl)cc3)c(F)c2)[C@@H](O)[C@H]1O` [352 (256), (1S,2R,3S,4R)—N-(3-((4-(4-chlorophenoxy)-3-fluorobenzyl)amino)propyl)-2,3-dihydroxy-4-(4-(methylamino)-7H-pyrrolo[2.3-d]pyrimidin-7-yl)cyclopentane-1-carboxamide]: the pKd at KMT9 [1] was 6.00 to 7.00. Also, the ΔTm at 500 µM at KMT9 [2] fell in the range of 10 to 15 °C. Also, the negative-log IC50 (pIC50) (as a rule, the negative decadic logarithm of the IC50, by convention in mol/L) on KMT9 [3] is below 5.00.

As for `CNc1ncnc2c1ccn2[C@@H]1C[C@H](CS(=O)(=O)CCNCCc2ccccc2)[C@@H](O)[C@H]1O` [433 (305), (1R,2S,3R,5S)-3-(4-(Methylamino)-7H-pyrrolo[2,3-d]pyrimidin-7-yl)-5-(((2-(phenethylamino)ethyl)sulfonyl)methyl) cyclopentane-1,2-diol], the pKd at KMT9 [1] was below 6.00. Moreover, the ΔTm at 500 µM on KMT9 [2] is at most 10 °C. In addition, the negative logarithm of the IC50 (pIC50) on KMT9 [3] was below 5.00.

In the case of `Nc1ncnc2c1c(-c1nccs1)cn2[C@@H]1C[C@H](CC2CNC2)[C@@H](O)[C@H]1O` [Compound 486, (1R,2S,3R,5S)-3-(4-amino-5-(thiazol-2-yl)-7H-pyrrolo[2,3-d]pyrimidin-7-yl)-5-(azetidin-3-ylmethyl) cyclopentane-1,2-diol], the pKd at KMT9 [1] was below 6.00. At KMT9 [2], the ΔTm at 500 µM was at most 10 °C. For the same molecule, the pIC50 against KMT9 [3] is below 5.00.

As for `Nc1ncnc2c1ncn2[C@@H]1O[C@H](C(=O)NCCCNCCc2ccc(Oc3ccccc3)cc2)[C@@H](O)[C@H]1O` [297 (194), (2S,3S,4R,5R)-5-(6-amino-9H-purin-9-yl)-3,4-dihydroxy-N-(3-((4-phenoxyphenethyl)amino)propyl) tetrahydrofuran-2-carboxamide], the pKd at KMT9 [1] is 6.00 to 7.00. Besides, the ΔTm at 500 µM at KMT9 [2] was at most 10 °C. The molecule further showed a negative logarithm of the IC50 (pIC50) against KMT9 [3] of 5.00 to 6.00.

`Nc1ncnc2c1c(-c1ccncc1)cn2[C@@H]1C[C@H](CNCCCNCCc2ccccc2)[C@@H](O)[C@H]1O` [470 (344), (1R,2S,3R,5R)-3-(4-Amino-5-(pyridin-4-yl)-7H-pyrrolo[2,3-d]pyrimidin-7-yl)-5-(((3-(phenethylamino)propyl)amino)methyl) cyclopentane-1,2-diol]: the pKd at KMT9 [1] was 6.00 to 7.00. Further, the ΔTm at 500 µM on KMT9 [2] was 10 to 15 °C. Further, the pIC50 against KMT9 [3] is 6.00 to 7.00.

Regarding `CNc1ncnc2c1ccn2[C@@H]1O[C@H](CNCCCNCCc2ccccc2)[C@@H](O)[C@H]1O` [309 (208), (2R,3R,45,5R)-2-(4-(methylamino)-7H-pyrrolo[2,3-d]pyrimidin-7-yl)-5-(((3-(phenethylamino)pronyl)amino)methyl) tetrahydrofuran-3.4-diol], the pKd on KMT9 [1] was below 6.00. At KMT9 [2], the ΔTm at 500 µM lay in the range of 10 to 15 °C. This molecule also showed a pIC50 against KMT9 [3] below 5.00.

For `CNc1ncnc2c1ccn2[C@@H]1C[C@H](/C=C/CCCNCCc2ccccc2)[C@@H](O)[C@H]1O` [425 (296), (1R,2S,3R,5R)-3-(4-(methylamino)-7H-pyrrolo[2,3-d]pyrimidin-7-yl)-5-((E)-5-(phenethylamino)pent-1-en-1-yl) cyclopentane-1,2-diol], the pKd at KMT9 [1] was below 6.00. For the same molecule, at KMT9 [2], the ΔTm at 500 µM is at most 10 °C. Moreover, the negative-log IC50 (pIC50) at KMT9 [3] is below 5.00.

Consider `Nc1ncnc2c1c(I)cn2[C@@H]1C[C@H](CNCCCNCCc2ccccc2)[C@@H](O)[C@H]1O` [343 (246)], for which the pKd on KMT9 [1] was 6.00 to 7.00. Besides, the ΔTm at 500 µM on KMT9 [2] was 15 to 20 °C. Further, at KMT9 [3], the negative-log IC50 (pIC50) is 6.00 to 7.00.

As to `CN1CC=C(c2cn([C@@H]3C[C@H](CNCCCNCCc4ccccc4)[C@@H](O)[C@H]3O)c3ncnc(N)c23)CC1` [482 (356), (1R,2S,3R,5R)-3-(4-amino-5-(1-methyl-1,2,3,6-tetrahydropyridin-4-yl)-7H-pyrrolo[2,3-d]pyrimidin-7-yl)-5-(((3-(phenethylamino)propyl)amino)methyl) cyclopentane-1,2-diol], on KMT9 [1], the pKd was below 6.00. Further, the ΔTm at 500 µM on KMT9 [2] fell in the range of 10 to 15 °C. On KMT9 [3], this molecule had a pIC50 of 5.00 to 6.00.

On to `CNc1ncnc2c1ccn2[C@@H]1C[C@H](C[S+]([O-])CCCNCCc2ccccc2)[C@@H](O)[C@H]1O` (stereo partly drawn) [428 (300), (1R,2S,3R,5S)-3-(4-(Methylamino)-7H-pyrrolo[2,3-d]pyrimidin-7-yl)-5-(((3-(phenethylamino)propyl)sulfinyl)methyl) cyclopentane-1,2-diol], for which, on KMT9 [1], the pKd is below 6.00. Moreover, the ΔTm at 500 µM on KMT9 [2] is at most 10 °C. Further, the negative logarithm of the IC50 (pIC50) against KMT9 [3] is below 5.00.

Regarding `CCc1cn([C@@H]2C[C@H](CNCCCNCCc3ccccc3)[C@@H](O)[C@H]2O)c2ncnc(C)c12` [Compound 611, (1R,2S,3R,5R)-3-(5-ethyl-4-methyl-7H-pyrrolo[2,3-d]pyrimidin-7-yl)-5-(((3-(phenethylamino)propyl)amino)methyl)cyclopentane-1,2-diol], the pKd at KMT9 [1] was below 6.00. At KMT9 [2], the ΔTm at 500 µM was at most 10 °C. The molecule also had a negative logarithm of the IC50 (pIC50) against KMT9 [3] below 5.00.

`CNC(=O)[C@H]1C[C@@H](n2cc3c4c(ncnc42)NCCC3)[C@H](O)[C@@H]1O` [Compound 624, (1S,2R,3S,4R)-2,3-Dihydroxy-N-methyl-4-(6,7,8,9-tetrahydro-2H-2,3,5,6-tetraazabenzo[cd]azulen-2-yl)cyclopentane-1-carboxamide]: the pKd on KMT9 [1] was below 6.00. For the same molecule, the ΔTm at 500 µM on KMT9 [2] was at most 10 °C. At KMT9 [3], this molecule had a pIC50 below 5.00.

Take `CNc1ncnc2c1ccn2[C@@H]1C[C@H](CN(CCCNCCc2cccc(Oc3ccccc3)c2)CC2CC2)[C@@H](O)[C@H]1O` [360 (270)]: the pKd on KMT9 [1] is 6.00 to 7.00. At KMT9 [2], the ΔTm at 500 µM is at most 10 °C. For the same molecule, the pIC50 against KMT9 [3] was below 5.00.

Turning to `CCNC(=O)NCCCNC(=O)[C@H]1O[C@@H](n2cnc3c(N)ncnc32)[C@H](O)[C@@H]1O` [307 (206), (2S,3S,4R,5R)-5-(6-amino-9H-purin-9-yl)-N-(3-(3-ethylureido)propyl)-3,4-dihydroxytetrahydrofuran-2-carboxamide], at KMT9 [1], the pKd is below 6.00. Also, the ΔTm at 500 µM on KMT9 [2] is at most 10 °C. In addition, the negative-log IC50 (pIC50) against KMT9 [3] is below 5.00.

Take `C=Cc1cn([C@@H]2C[C@H](CNCCCNCCc3ccccc3)[C@@H](O)[C@H]2O)c2ncncc12` [Compound 608, (1R,2S,3R,5R)-3-{5-ethenylpyrrolo[2,3-d]pyrimidin-7-yl}-5-[({3-[(2-phenylethyl)amino]propyl}amino)methyl]cyclopentane-1,2-diol]: on KMT9 [1], the pKd was 6.00 to 7.00. Besides, the ΔTm at 500 µM at KMT9 [2] is at most 10 °C. Besides, at KMT9 [3], the negative-log IC50 (pIC50) was below 5.00.

As for `CNc1ncnc2c1ccn2[C@@H]1C[C@H](Cn2ccnc2CCCNCCc2cccc(Oc3ccccc3)c2)[C@@H](O)[C@H]1O` [326 (229), (1R,2S,3R,5R)-3-(4-(methylamino)-7H-pyrrolo[2,3-d]pyrimidin-7-yl)-5-((2-(3-((3-phenoxyphenethyl)amino)propyl)-1H-imidazol-1-yl)methyl) cyclopentane-1,2-diol], on KMT9 [1], the pKd was below 6.00. Besides, the ΔTm at 500 µM at KMT9 [2] was at most 10 °C. For the same molecule, on KMT9 [3], the negative logarithm of the IC50 (pIC50) is below 5.00.

For `CNc1ncnc2c1ccn2[C@@H]1C[C@H](CCCCCNCCc2ccccc2)[C@@H](O)[C@H]1O` [424 (295), (1R,2S,3R,5S)-3-(4-(Methylamino)-7H-pyrrolo[2,3-d]pyrimidin-7-yl)-5-(5-(phenethylamino)pentyl) cyclopentane-1,2-diol], at KMT9 [1], the pKd is 6.00 to 7.00. Besides, the ΔTm at 500 µM at KMT9 [2] lay within 10 to 15 °C. This molecule also showed a pIC50 against KMT9 [3] of 5.00 to 6.00.

Turning to `CNc1ncnc2c1ccn2[C@@H]1C[C@H](CN(CCCN)c2cncs2)[C@@H](O)[C@H]1O` [437 (309), (1S,2R,3R,5R)-3-{[(3-Aminopropyl)(1,3-thiazol-5-yl)amino]methyl}-5-[4-(methylamino)pyrrolo[2,3-d]pyrimidin-7-yl]cyclopentane-1,2-diol], on KMT9 [1], the pKd is below 6.00. The ΔTm at 500 µM at KMT9 [2] is at most 10 °C. Also, the pIC50 against KMT9 [3] is 5.00 to 6.00.

On to `Nc1ncnc2c1ncn2[C@@H]1O[C@H](CNCCCNCc2ccc(OCc3ccccc3)cc2)[C@@H](O)[C@H]1O` [321 (224), (2R,3R,4S,5R)-2-(6-amino-9H-purin-9-yl)-5-(((3-((4-(benzyloxy)benzyl)amino)propyl)amino)methyl)tetrahydrofuran-3 4-diol], for which, at KMT9 [1], the pKd was 6.00 to 7.00. In addition, at KMT9 [2], the ΔTm at 500 µM was at most 10 °C. In addition, the pIC50 at KMT9 [3] was below 5.00.

For `CNc1ncnc2c1ccn2[C@@H]1C[C@H](CN2CC(CNCCc3ccc4ccccc4c3)C2)[C@@H](O)[C@H]1O` [360 (264), (1R,2S,3R,5R)-3-(4-(methylamino)-7H-pyrrolo[2,3-d]pyrimidin-7-yl)-5-((3-(((2-(naphthalen-2-yl)ethyl)amino)methyl)azetidin-1-yl)methyl) cyclopentane-1,2-diol], the pKd at KMT9 [1] was below 6.00. The ΔTm at 500 µM at KMT9 [2] is at most 10 °C. Further, the pIC50 against KMT9 [3] is below 5.00.

The values are drawn from US20250188110A1, “SPECIFIC SMALL MOLECULE INHIBITORS THAT BLOCK KMT9 METHYLTRANSFERASE ACTIVITY AND FUNCTION” (ALBERT-LUDWIGS-UNIVERSITÄT FREIBURG, priority 2021, published 2025).
